Test results published in ChEMBL document CHEMBL5465560, “Selectivity Literature for EUbOPEN Chemogenomic Library” (2024).

Columns and labels:
[1] = target: Ephrin type-A receptor 2 (Homo sapiens) (UniProt P29317); experiment: Selectivity interaction (KinomeScan (DiscoverX)) EUB0000666a EPHA2; conditions: at 10 µM
[2] = test system: Epidermal growth factor receptor (Homo sapiens), P00533 [UNDEFINED MUTATION]; experiment: Selectivity interaction (KinomeScan (DiscoverX)) EUB0000607a EGFR; conditions: at 10 µM
Epidermal growth factor receptor (Homo sapiens), P00533 [UNDEFINED MUTATION], sequence (P00533 whole entry, looked up, change not shown): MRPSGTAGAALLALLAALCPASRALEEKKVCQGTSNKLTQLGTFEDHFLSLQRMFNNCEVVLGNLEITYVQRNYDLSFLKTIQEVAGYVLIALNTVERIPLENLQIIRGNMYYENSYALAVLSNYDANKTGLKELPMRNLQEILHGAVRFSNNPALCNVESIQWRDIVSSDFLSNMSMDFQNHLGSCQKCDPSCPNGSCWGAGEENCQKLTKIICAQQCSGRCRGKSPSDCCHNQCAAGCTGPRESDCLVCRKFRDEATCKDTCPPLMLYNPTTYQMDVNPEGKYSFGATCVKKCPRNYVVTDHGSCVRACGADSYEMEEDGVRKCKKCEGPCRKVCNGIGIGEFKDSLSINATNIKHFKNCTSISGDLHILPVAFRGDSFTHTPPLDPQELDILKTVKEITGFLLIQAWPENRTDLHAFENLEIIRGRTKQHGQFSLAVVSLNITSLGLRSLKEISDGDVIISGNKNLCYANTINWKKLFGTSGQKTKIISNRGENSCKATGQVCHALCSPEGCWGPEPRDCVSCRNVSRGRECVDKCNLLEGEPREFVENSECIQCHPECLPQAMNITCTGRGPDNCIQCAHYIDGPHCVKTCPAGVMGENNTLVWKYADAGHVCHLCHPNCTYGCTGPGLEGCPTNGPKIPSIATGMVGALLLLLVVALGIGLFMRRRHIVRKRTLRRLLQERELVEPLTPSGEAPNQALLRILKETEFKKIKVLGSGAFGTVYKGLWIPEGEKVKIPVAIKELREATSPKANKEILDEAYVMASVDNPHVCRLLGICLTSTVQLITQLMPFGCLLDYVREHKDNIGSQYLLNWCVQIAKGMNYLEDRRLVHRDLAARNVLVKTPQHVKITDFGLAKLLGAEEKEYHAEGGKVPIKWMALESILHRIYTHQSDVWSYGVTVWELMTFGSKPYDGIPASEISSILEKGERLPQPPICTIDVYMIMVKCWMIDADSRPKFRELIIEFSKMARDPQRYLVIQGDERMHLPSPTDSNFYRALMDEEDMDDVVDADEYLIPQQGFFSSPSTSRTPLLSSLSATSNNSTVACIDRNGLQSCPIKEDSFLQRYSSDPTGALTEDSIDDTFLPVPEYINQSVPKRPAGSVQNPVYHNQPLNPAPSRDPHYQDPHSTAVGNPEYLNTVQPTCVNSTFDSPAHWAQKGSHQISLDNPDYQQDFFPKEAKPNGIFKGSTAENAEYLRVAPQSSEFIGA

[3] = target: T1, STE20-related kinase adapter protein alpha (Homo sapiens) (UniProt Q7RTN6); experiment: Selectivity interaction (ActivX KiNativ screen (kinase selectivity in THP-1 cell lysates)) EUB0000639a STRADA; type: subcellular; conditions: lysate, at 1 µM
T1 sequence (whole entry): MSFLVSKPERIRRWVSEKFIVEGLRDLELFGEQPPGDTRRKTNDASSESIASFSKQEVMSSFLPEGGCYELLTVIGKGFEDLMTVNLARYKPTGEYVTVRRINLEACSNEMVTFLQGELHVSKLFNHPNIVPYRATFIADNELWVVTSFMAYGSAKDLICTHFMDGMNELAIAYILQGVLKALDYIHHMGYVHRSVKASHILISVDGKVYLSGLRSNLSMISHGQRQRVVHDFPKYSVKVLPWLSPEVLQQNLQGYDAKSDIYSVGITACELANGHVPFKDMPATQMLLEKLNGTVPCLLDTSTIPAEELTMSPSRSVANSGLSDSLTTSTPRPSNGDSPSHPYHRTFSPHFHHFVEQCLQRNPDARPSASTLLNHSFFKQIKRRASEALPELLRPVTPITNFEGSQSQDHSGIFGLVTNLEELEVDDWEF

[4] = test system: Tyrosine-protein kinase ABL1 (Homo sapiens), P00519 [Q252H]; experiment: Selectivity interaction (KinomeScan (DiscoverX)) EUB0001049a ABL1; conditions: at 1 µM
[5] = target: Fibroblast growth factor receptor 1 (Homo sapiens, UniProt P11362); experiment: Selectivity interaction (Ambit KINOMEscan and KiNATiv profiling in Jurkat cells) EUB0000090b FGFR1; type: cell-based; conditions: at 1 µM
Fibroblast growth factor receptor 1, sequence (P11362 22-822 limits assumed): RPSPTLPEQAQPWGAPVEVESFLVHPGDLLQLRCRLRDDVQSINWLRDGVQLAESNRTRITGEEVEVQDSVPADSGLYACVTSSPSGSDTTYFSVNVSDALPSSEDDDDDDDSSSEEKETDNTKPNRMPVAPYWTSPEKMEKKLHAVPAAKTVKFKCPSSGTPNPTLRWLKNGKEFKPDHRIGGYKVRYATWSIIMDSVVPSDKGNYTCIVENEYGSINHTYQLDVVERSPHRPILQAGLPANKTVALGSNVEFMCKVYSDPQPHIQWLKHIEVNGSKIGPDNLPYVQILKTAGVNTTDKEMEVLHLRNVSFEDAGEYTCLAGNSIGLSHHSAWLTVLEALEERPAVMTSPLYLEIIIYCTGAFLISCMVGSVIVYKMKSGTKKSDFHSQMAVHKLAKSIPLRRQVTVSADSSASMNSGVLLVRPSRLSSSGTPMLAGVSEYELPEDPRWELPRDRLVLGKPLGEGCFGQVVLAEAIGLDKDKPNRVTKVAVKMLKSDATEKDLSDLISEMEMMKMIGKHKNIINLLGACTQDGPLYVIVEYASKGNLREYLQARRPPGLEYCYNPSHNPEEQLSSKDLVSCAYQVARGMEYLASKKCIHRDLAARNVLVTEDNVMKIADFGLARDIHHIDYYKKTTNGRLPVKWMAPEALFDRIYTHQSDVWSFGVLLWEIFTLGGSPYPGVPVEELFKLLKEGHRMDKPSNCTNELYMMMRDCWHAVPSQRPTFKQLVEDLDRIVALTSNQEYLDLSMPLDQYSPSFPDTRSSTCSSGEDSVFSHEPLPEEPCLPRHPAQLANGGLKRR

[6] = target: Tyrosine-protein kinase Yes (Homo sapiens) (UniProt P07947); experiment: Selectivity interaction (KinomeScan (DiscoverX)) EUB0000229b YES1; conditions: at 10 µM
Tyrosine-protein kinase Yes (Homo sapiens), sequence (P07947 2-543 limits assumed): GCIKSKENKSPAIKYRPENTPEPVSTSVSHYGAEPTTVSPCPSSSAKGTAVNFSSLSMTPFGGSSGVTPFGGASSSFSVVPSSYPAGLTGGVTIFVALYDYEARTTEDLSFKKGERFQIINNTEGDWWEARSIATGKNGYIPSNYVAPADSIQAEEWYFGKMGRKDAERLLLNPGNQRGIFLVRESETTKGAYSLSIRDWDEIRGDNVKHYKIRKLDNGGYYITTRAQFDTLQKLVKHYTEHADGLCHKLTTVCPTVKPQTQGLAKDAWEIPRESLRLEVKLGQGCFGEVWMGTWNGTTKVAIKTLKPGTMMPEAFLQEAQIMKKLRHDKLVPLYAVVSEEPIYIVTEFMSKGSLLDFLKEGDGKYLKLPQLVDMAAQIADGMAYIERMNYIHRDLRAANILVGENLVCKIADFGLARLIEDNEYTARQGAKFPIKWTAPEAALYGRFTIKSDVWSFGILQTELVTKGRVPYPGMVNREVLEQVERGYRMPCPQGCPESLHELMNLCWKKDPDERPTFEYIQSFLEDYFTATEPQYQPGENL

[7] = target: T2, Bone morphogenetic protein receptor type-2 (Homo sapiens) (UniProt Q13873); conditions: at 10 µM
T2 sequence (whole entry): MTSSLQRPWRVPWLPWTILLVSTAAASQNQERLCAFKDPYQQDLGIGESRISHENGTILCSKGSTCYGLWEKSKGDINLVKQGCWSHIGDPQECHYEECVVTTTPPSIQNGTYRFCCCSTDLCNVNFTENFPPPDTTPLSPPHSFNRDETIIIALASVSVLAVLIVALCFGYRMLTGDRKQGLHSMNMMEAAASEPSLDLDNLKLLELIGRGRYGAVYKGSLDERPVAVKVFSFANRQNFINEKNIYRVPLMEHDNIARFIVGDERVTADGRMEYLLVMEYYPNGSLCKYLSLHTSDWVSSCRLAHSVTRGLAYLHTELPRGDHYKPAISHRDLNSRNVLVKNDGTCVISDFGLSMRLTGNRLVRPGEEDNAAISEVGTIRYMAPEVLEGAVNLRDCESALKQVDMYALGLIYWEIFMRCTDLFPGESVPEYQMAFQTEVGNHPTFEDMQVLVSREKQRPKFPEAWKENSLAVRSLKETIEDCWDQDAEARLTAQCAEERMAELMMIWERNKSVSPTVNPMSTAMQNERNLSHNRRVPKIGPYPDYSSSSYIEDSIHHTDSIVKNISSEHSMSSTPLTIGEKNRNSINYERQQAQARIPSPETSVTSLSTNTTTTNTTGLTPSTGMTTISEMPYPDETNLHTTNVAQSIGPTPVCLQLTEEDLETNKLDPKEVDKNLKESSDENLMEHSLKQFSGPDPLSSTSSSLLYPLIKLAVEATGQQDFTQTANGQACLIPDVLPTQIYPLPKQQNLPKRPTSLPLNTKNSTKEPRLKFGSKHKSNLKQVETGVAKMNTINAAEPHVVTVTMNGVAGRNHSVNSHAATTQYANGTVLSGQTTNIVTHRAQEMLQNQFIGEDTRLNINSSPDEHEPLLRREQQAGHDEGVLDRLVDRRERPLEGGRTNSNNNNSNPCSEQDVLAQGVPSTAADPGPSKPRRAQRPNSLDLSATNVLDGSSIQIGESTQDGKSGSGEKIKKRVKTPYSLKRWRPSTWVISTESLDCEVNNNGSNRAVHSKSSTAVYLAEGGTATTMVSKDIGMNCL

Ephrin type-A receptor 2 (Homo sapiens), sequence (P29317 whole entry): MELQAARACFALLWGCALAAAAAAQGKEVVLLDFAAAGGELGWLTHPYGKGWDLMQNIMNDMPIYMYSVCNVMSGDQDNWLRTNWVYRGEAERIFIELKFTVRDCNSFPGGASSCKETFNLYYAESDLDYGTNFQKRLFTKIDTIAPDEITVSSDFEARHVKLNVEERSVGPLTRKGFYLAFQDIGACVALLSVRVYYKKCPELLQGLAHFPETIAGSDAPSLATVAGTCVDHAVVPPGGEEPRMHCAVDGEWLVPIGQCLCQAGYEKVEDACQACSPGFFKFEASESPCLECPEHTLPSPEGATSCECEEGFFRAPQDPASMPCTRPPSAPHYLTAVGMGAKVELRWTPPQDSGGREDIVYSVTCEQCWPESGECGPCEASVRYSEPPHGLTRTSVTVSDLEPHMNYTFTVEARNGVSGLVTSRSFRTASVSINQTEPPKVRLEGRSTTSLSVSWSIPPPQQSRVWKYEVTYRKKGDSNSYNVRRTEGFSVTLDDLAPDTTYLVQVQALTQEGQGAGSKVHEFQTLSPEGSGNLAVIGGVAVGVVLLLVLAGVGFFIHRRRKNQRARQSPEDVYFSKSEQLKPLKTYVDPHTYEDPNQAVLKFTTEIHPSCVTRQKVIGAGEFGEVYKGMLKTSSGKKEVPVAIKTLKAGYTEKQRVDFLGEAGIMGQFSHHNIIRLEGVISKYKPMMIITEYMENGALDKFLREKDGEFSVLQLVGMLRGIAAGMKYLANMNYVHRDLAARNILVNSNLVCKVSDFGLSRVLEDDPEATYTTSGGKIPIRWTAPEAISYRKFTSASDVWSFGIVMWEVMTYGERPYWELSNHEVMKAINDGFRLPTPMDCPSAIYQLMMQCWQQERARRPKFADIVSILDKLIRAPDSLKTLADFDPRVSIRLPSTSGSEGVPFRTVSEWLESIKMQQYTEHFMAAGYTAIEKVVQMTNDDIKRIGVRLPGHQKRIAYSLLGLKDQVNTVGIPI

With O=C(NOC[C@H](O)CO)c1ccc(F)c(F)c1Nc1ccc(I)cc1F the % of control [1] was 88%.
Work on CNC(=O)Nc1ccc(-c2nc(N3CC4CCC(C3)O4)c3cnn(C4CCC5(CC4)OCCO5)c3n2)cc1 yielded a % of control [2] of 55%.
CC[C@@H]1[C@H](F)C(=O)N[C@@H]1COc1nccc2cc(C(N)=O)c(OC)cc12 [ZIMLOVISERTIB] showed a % of inhibition [3] of -7.6%.
In the case of COc1cc(Nc2nc(C)cc(-c3cnn4nc(OC)ccc34)n2)cc(C(F)(F)F)c1, the % of control [4] is reported as 80%.
With CN(C)C/C=C/C(=O)Nc1ccc(C(=O)N2CCCC(Nc3ncc(Cl)c(-c4c[nH]c5ccccc45)n3)C2)cc1 (configuration not stated) the % of control [5] was 82%.
With COc1cc(N(C)c2ccnc3ccc(C(F)(F)F)cc23)cc(OC)c1OC the % binding [6] was 83%.
Cc1cc([C@@H](C)Nc2ccccc2C(=O)O)c2nc(N3CCOCC3)cc(=O)n2c1 [AZD-6482] was tested, and the % of control [7] was 69%.
